Numbers after ± are expanded uncertainties.
Test: xn = mol fraction of the nth substance listed
Conditions: 101 kPa, Liquid, Capillary tube (Ostwald / Ubbelohde) method, x1 = 0.38

CC(C)C(=O)O [2-methylpropanoic acid] + O
Conditions | viscosity [mPa·s]
300.25 K | 2.21 ± 0.02
300.33 K | 2.205 ± 0.02
300.36 K | 2.204 ± 0.02
300.49 K | 2.197 ± 0.02
300.61 K | 2.19 ± 0.02
300.66 K | 2.187 ± 0.02
300.76 K | 2.182 ± 0.02
300.87 K | 2.176 ± 0.038
300.96 K | 2.171 ± 0.038
301.09 K | 2.164 ± 0.039
301.16 K | 2.16 ± 0.039
301.26 K | 2.154 ± 0.038
301.36 K | 2.149 ± 0.038
301.49 K | 2.142 ± 0.038
301.56 K | 2.138 ± 0.038
301.85 K | 2.122 ± 0.038
302.16 K | 2.105 ± 0.019
302.46 K | 2.088 ± 0.038
